Experimental data taken from patent publication US9458153B2, “Dihydroquinolizinones for the treatment and prophylaxis of hepatitis B virus infection” (Hoffmann-La Roche Inc., priority 2014, dated 2016).
Structures can show the parent of a compound that is named as a salt.

Tested on: HBsAg
Experiment: HBsAg assay (chemiluminescence immunoassay of secreted HBsAg in HepG2.2.15 culture supernatant)
Type: cell-based, HBV
Settings: HepG2.2.15 cells, CLIA kit
Method: HepG2.2.15 cells (Acs et al. Proc Natl Acad Sci USA, 84, (1987), 4641-4), a constitutively HBV-expressing cell line were cultured in DMEM+Glutamax-I medium (Invitrogen, Carlsbad, Calif., USA), supplemented with 10% fetal bovine serum (Invitrogen) and G418 (Invitrogen) at a final concentration of 200 mg/L and maintained in 5% CO2 at 37° C.
HepG2.2.15 cells were seeded in duplicate into white, 96-well plates at 1.5×10^4 cells/well. The cells were treated with a three-fold serial dilution series of the compounds in DMSO. The final DMSO concentration in all wells was 1% and DMSO was used as no drug control.
The HBsAg chemiluminescence immunoassay (CLIA) kit (Autobio Diagnostics Co., Zhengzhou, China, Catalog number: CL0310-2) was used to measure the levels of secreted HBV antigens semi-quantitatively. For the detection 50 μL/well culture supernatant was used and HBsAg was quantified using HBsAg chemiluminescence immunoassay (CLIA) kit (Autobio Diagnostics Co., Zhengzhou, China, Catalog number: CL0310-2), 50 μL of the supernatant was transferred to the CLIA assay plate and 50 μL of enzyme conjugate reagent was added into each well. The plates were sealed and gently agitated for 1 hour at room temperature. The supernatant-enzyme-mixture was discarded and wells were washed 6 times with 300 μL of PBS. The residual liquid was removed by plating the CLIA plate right side down on absorbent tissue paper. 25 μL of substrates A and B were added to each well. Luminance was measured using a luminometer (Mithras LB 940 Multimode Microplate Reader) after 10 minutes incubation. Dose-response curves were generated and the IC50 value was extrapolated by using the E-WorkBook Suite (ID Business Solutions Ltd., Guildford, UK).
The compounds of the present invention were tested for their capacity to inhibit HBsAg as described herein.

[1] = Hepatitis B virus, HepG2.2.15, HBsAg secretion reduced by 50% vs no drug control
[2] = HBsAg secretion reduced by 50% vs no drug control
[3] = HBsAg secretion reduced by 50% vs no drug control, hydrochloride

| Structure (SMILES) | IC50 [2] [nM] | further results |
| --- | --- | --- |
| COc1cc2c(cc1OCC#CCO)CC(C(C)(C)C)n1cc(C(=O)O)c(=O)cc1-2 (centres unmarked) [Example 159, 6-tert-butyl-9-(4-hydroxybut-2-ynoxy)-10-methoxy-2-oxo-6,7-dihydrobenzo[a]quinolizine-3-carboxylic acid] | – | IC50 [1]: 66 nM |
| COCCOc1cc2c(cc1Cl)-c1cc(=O)c(C(=O)O)cn1C(CC(C)C)C2 (single isomer, unassigned; (-)) [Example 106, (−)-10-chloro-6-isobutyl-9-(2-methoxyethoxy)-2-oxo-6,7-dihydrobenzo[a]quinolizine-3-carboxylic acid] | 7310 | – |
| COc1cc2c(cc1OCCCCCN)CC(C(C)(C)C)n1cc(C(=O)O)c(=O)cc1-2 (single isomer, unassigned; (-)) [Example 174, (−)-9-(5-aminopentoxy)-6-tert-butyl-10-methoxy-2-oxo-6,7-dihydrobenzo[a]quinolizine-3-carboxylic acid hydrochloride] | – | IC50 [3]: 2420 nM |
| COCCCOc1cc2c(cc1Cl)-c1cc(=O)c(C(=O)O)cn1C(C(C)C)C2 (single isomer, unassigned; (-)) [Example 122, (−)-10-chloro-6-isopropyl-9-(3-methoxypropoxy)-2-oxo-6,7-dihydrobenzo[a]quinolizine-3-carboxylic acid] | 690 | – |
| COc1cc2c(cc1OCC(C)(C)CO)CC(C(C)C)n1cc(C(=O)O)c(=O)cc1-2 (centres unmarked) [Example 144, 9-(3-hydroxy-2,2-dimethyl-propoxy)-6-isopropyl-10-methoxy-2-oxo-6,7-dihydrobenzo[a]quinolizine-3-carboxylic acid] | 26 | – |
| CCC1Cc2cc(OC)c(C3CC3)cc2-c2cc(=O)c(C(=O)O)cn21 (single isomer, unassigned; (+)) [Example 90, (+)-10-cyclopropyl-6-ethyl-9-methoxy-2-oxo-6,7-dihydrobenzo[a]quinolizine-3-carboxylic acid] | 10 | – |
| COc1cc2c(cc1OCCCCCCO)CC(C(C)(C)C)n1cc(C(=O)O)c(=O)cc1-2 (single isomer, unassigned; (+)) [Example 156, (+)-6-tert-butyl-9-(6-hydroxyhexoxy)-10-methoxy-2-oxo-6,7-dihydrobenzo[a]quinolizine-3-carboxylic acid] | 1 | – |
| COCCOc1cc2c(cc1OC)-c1cc(=O)c(C(=O)O)cn1C(C(C)C)C2 (single isomer, unassigned; (+)) [Example 129, (+)-6-isopropyl-10-methoxy-9-(2-methoxyethoxy)-2-oxo-6,7-dihydrobenzo[a]quinolizine-3-carboxylic acid] | 12 | – |
| COCCCOc1cc2c(cc1OC)-c1cc(=O)c(C(=O)O)cn1C(C1(C)CC1)C2 (single isomer, unassigned; (-)) [Example 210, (−)-10-methoxy-9-(3-methoxypropoxy)-6-(1-methylcyclopropyl)-2-oxo-6,7-dihydrobenzo[a]quinolizine-3-carboxylic acid] | 92 | – |
| CCC1Cc2cc(OCC(F)F)c(OC)cc2-c2cc(=O)c(C(=O)O)cn21 (centres unmarked) [Example 45, 9-(2,2-difluoroethoxy)-6-ethyl-10-methoxy-2-oxo-6,7-dihydrobenzo[a]quinolizine-3-carboxylic acid] | 104 | – |
| CCC(F)(F)Oc1cc2c(cc1OC)-c1cc(=O)c(C(=O)O)cn1C(C(C)(C)C)C2 (centres unmarked) [Example 181, 6-tert-butyl-9-(1,1-difluoropropoxy)-10-methoxy-2-oxo-6,7-dihydrobenzo[a]quinolizine-3-carboxylic acid] | – | IC50 [1]: 12 nM |
| CCOCCOc1cc2c(cc1OC)-c1cc(=O)c(C(=O)O)cn1C(CC)C2 (single isomer, unassigned; (+)) [Example 43, (+)-9-(2-ethoxyethoxy)-6-ethyl-10-methoxy-2-oxo-6,7-dihydrobenzo[a]quinolizine-3-carboxylic acid] | 46 | – |
| CCC1Cc2cc(OCC3CC3)c(OC)cc2-c2cc(=O)c(C(=O)O)cn21 (single isomer, unassigned; (+)) [Example 31, (+)-9-(cyclopropylmethoxy)-6-ethyl-10-methoxy-2-oxo-6,7-dihydrobenzo[a]quinolizine-3-carboxylic acid] | 9 | – |
| COc1cc2c(cc1OCCCCCCN)CC(C(C)(C)C)n1cc(C(=O)O)c(=O)cc1-2 (single isomer, unassigned; (+)) [Example 164, (+)-9-(6-aminohexoxy)-6-tert-butyl-10-methoxy-2-oxo-6,7-dihydrobenzo[a]quinolizine-3-carboxylic acid hydrochloride] | – | IC50 [3]: 3 nM |
| CCC1Cc2cc(OCc3ccccc3)c(OC)cc2-c2cc(=O)c(C(=O)O)cn21 (single isomer, unassigned; (-)) [Example 10, (−)-9-benzyloxy-6-ethyl-10-methoxy-2-oxo-6,7-dihydrobenzo[a]quinolizine-3-carboxylic acid] | 1240 | – |
| CCC1Cc2c(ccc(C)c2C)-c2cc(=O)c(C(=O)O)cn21 (centres unmarked) [Example 113, 6-ethyl-8,9-dimethyl-2-oxo-6,7-dihydrobenzo[a]quinolizine-3-carboxylic acid] | – | IC50 [1]: 640 nM |
| CCC1Cc2cc(OCC3(C#N)CC3)c(OC)cc2-c2cc(=O)c(C(=O)O)cn21 (centres unmarked) [Example 57, 9-[(1-cyanocyclopropyl)methoxy]-6-ethyl-10-methoxy-2-oxo-6,7-dihydrobenzo[a]quinolizine-3-carboxylic acid] | – | IC50 [1]: 170 nM |
| CCC1Cc2cc(OCC(=O)N3CCCC3)c(OC)cc2-c2cc(=O)c(C(=O)O)cn21 (centres unmarked) [Example 18, 6-ethyl-10-methoxy-2-oxo-9-(2-oxo-2-pyrrolidin-1-yl-ethoxy)-6,7-dihydrobenzo[a]quinolizine-3-carboxylic acid] | – | IC50 [1]: 9470 nM |
| CCCOc1cc2c(cc1OCCC)-c1cc(=O)c(C(=O)O)cn1CC2 [Example 77, 2-oxo-9,10-dipropoxy-6,7-dihydrobenzo[a]quinolizine-3-carboxylic acid] | – | IC50 [1]: 830 nM |
| COc1cc2c(c(Cl)c1OC)CC(C)n1cc(C(=O)O)c(=O)cc1-2 (centres unmarked) [Example 83, 8-chloro-9,10-dimethoxy-6-methyl-2-oxo-6,7-dihydrobenzo[a]quinolizine-3-carboxylic acid] | – | IC50 [1]: 5600 nM |
| CCC1Cc2cc(OCC(F)(F)F)c(OC)cc2-c2cc(=O)c(C(=O)O)cn21 (single isomer, unassigned; (-)) [Example 12, (−)-6-ethyl-10-methoxy-2-oxo-9-(2,2,2-trifluoroethoxy)-6,7-dihydrobenzo[a]quinolizine-3-carboxylic acid] | 5200 | – |
| COc1cc2c(cc1OC)-c1cc(=O)c(C(=O)O)cn1C(Cc1ccccc1)C2 (centres unmarked) [Example 211, 6-benzyl-9,10-dimethoxy-2-oxo-6,7-dihydrobenzo[a]quinolizine-3-carboxylic acid] | – | IC50 [1]: 8250 nM |
| COc1cc2c(cc1OCCCSC)CC(C(C)(C)C)n1cc(C(=O)O)c(=O)cc1-2 (centres unmarked) [Example 183, 6-tert-butyl-10-methoxy-9-(3-methylsulfanylpropoxy)-2-oxo-6,7-dihydrobenzo[a]quinolizine-3-carboxylic acid] | 2 | – |
| CCC1Cc2cc(OCC(C)C)c(OC)cc2-c2cc(=O)c(C(=O)O)cn21 (single isomer, unassigned; (+)) [Example 34, (+)-6-ethyl-9-isobutoxy-10-methoxy-2-oxo-6,7-dihydrobenzo[a]quinolizine-3-carboxylic acid] | 4 | – |
| COCCCOc1cc2c(cc1Cl)-c1cc(=O)c(C(=O)O)cn1C(C1(C)CC1)C2 (centres unmarked) [Example 205, 10-chloro-9-(3-methoxypropoxy)-6-(1-methylcyclopropyl)-2-oxo-6,7-dihydrobenzo[a]quinolizine-3-carboxylic acid] | 1 | – |
| CCOc1cc2c(cc1OC)-c1cc(=O)c(C(=O)O)cn1C(CC)C2 (single isomer, unassigned; (+)) [Example 37, (+)-9-ethoxy-6-ethyl-10-methoxy-2-oxo-6,7-dihydrobenzo[a]quinolizine-3-carboxylic acid] | 8 | – |
| CCC1Cc2cc(OCCCOC)c(OC)cc2-c2cc(=O)c(C(=O)O)cn21 (centres unmarked) [Example 39, 6-ethyl-10-methoxy-9-(3-methoxypropoxy)-2-oxo-6,7-dihydrobenzo[a]quinolizine-3-carboxylic acid] | 16 | – |
| CCC1Cc2cc(OCc3ccccc3)c(OC)cc2-c2cc(=O)c(C(=O)O)cn21 (single isomer, unassigned; (+)) [Example 9, (+)-9-benzyloxy-6-ethyl-10-methoxy-2-oxo-6,7-dihydrobenzo[a]quinolizine-3-carboxylic acid] | 15 | – |
| CCC1Cc2cc(OCc3ccccc3)c(OC)cc2-c2cc(=O)c(C(=O)O)cn21 (centres unmarked) [Example 8, 9-benzyloxy-6-ethyl-10-methoxy-2-oxo-6,7-dihydrobenzo[a]quinolizine-3-carboxylic acid] | 150 | – |
